Test results published in US9982265B2, “Inhibition of Bruton's tyrosine kinase (Btk) in the lung to treat severe lung inflammation and lung injury” (BOARD OF REGENTS, THE UNIVERSITY OF TEXAS SYSTEM, priority 2014, dated 2018).

Columns and labels:
[1] = test system: alveolar neutrophils; assay: Uptake of alveolar neutrophils by mouse spleen macrophages (co-culture 1 h); type: cell-based; details: neutrophils from treated LPS/IC ALI mice versus ALI; FIG. 5B
Method: Neutrophil Apoptosis/Uptake: Purified alveolar neutrophils were evaluated for the presence of cleaved caspase 3 as done routinely in our laboratory (13). Cells mounted on cytospins were incubated with anti-mouse cleaved caspase 3 antibody (Cell Signaling Technology, Danvers, Mass.), followed by dye-conjugated secondary antibody. Fluorescence intensity of cleaved caspase 3 was analyzed as described above. In addition, alveolar neutrophils were co-cultured with mouse spleen macrophages for 1 h (43, 44), and percentage of phagocytosed neutrophils was calculated. In separate sets of experiments bone marrow neutrophils (BMPMNs) were purified according to the previously published protocol (54) and cultivated for 24 h to induce spontaneous apoptosis. Some cells were cultured in the presence of LPS and anti-KC:KC immune complexes. In other experiments, BMPMNs were treated with siRNA specific for Btk (Santa Cruz Biotechnology) conjugated to F(ab′)2 fragments of the Ly6G1A8 antibody. Similarly conjugated control siRNA (Santa Cruz Biotechnology) or F(ab′)2 fragments of the Ly6G1A8 alone served as controls.
In other experiments, purified alveolar neutrophils were co-cultured with mouse spleen macrophages for 1 h, and the percentage of phagocytosed neutrophils was assessed by counting numbers of neutrophils present inside macrophages. […]

[2] = test system: Btk; assay: Expression of Btk / pBtk in alveolar neutrophils of treated ALI mice, laser confocal microscopy; type: in vivo; details: LPS/IC ALI; 2 h after administration of ICs; FIG. 4B
Method: (§1) Laser Confocal Microscopy: Purified alveolar neutrophils mounted on cytospins were incubated with the following primary antibodies: anti-mouse Btk, anti-mouse MyD88, anti-mouse MMP-9 (Santa Cruz Biotechnology), and anti-mouse pBtk (Invitrogen, Grand Island, N.Y.). Species specific antibodies conjugated with fluorescent dyes were subsequently applied to slides. Lung tissue sections, processed as routinely done in our laboratory (26, 28), were incubated with anti-mouse FcγRIII antibody (R&D Systems, Minneapolis, Minn.), or anti-mouse MMP-9 antibody (Santa Cruz Biotechnology), or with anti-neutrophil (Ly6G1A8) antibody (Bio X Cell, West Lebanon, N.H.) followed by fluorescence dye-conjugated secondary antibodies. Hoechst 33342 (Calbiochem, San Diego, Calif.) was employed to stain nuclei. Laser confocal microscopy was performed using PerkinElmer Ultra VIEW LCI confocal imaging system with Nikon TE2000-S fluorescence microscope and PlanApox60 immersion oil objective (numerical aperture [NA] 1.4) at room temperature. Ultra VIEW Imaging Suite software (version 5.5.0.4) was used for image processing.
Laser confocal microscopy was employed to confirm the effectiveness of Btk blocking in alveolar neutrophils. […] The effectiveness of Btk silencing in alveolar neutrophils was 92%. […] These experiments were performed at 2 h after administration of ICs.

[3] = test system: thrombomodulin (TM); assay: Thrombomodulin in BAL fluid by Western blot, flu induced ALI; type: in vivo, mice; details: FIG. 13
[4] = test system: MMP-9; assay: Expression of MMP-9 in alveolar neutrophils of treated ALI mice, laser confocal microscopy; type: in vivo; details: LPS/IC ALI; FIGS. 6A and B
Method: as §1
Neutrophils are implicated in ALI because of various substances released from granules into the area of inflammation. MMP-9 (gelatinase B) is one of the most extensively studied MMPs in the context of ALI. […]

Substance: Cont siRNA: control siRNA #8 (SEQ ID NO:26/27) conjugated to F(ab′)2 fragments of Ly6G1A8 (chain 1 UUCCUCUCCACGCGCAGUACAUUUA; chain 2 AAGGAGAGGUGCGCGUCAUGUAAAU; conjugated to antibody F(ab')2 fragment, attachment not given here; one strand is listed 3' to 5')
- uptake (phagocytosis) of apoptotic alveolar neutrophils by macrophages [1]: no effect
- Btk in lung neutrophils [2]: normal levels
- levels of TM in BAL fluid [3]: significantly increased levels
- MMP-9 expression in lung neutrophils [4]: detectable
